Reference: patent US10544140B2, “Pharmaceutical composition containing, as active ingredient, 7-azaindolin-2-one derivative or pharmaceutically acceptable salt thereof” (LG CHEM, LTD., priority 2015, dated 2020)

What was measured:
DU145 (prostate cancer) = assay: Cytotoxicity test by MTT assay, DU145; assay type: cell-based, human; conditions: Homo sapiens, DU-145; DU145, 48 h
Description: (§1) A cytotoxicity test was measured by MTT assay. Each cell line was cultured in a 96-well plate at a density of 1×10^4 cells/well. After 24 hours, the culture medium containing 1% FBS (fetal bovine serum) was treated and reacted with compounds or solutions of compounds for 48 hours. MTT (3-(4,5-dimethylthiazol-2-yl)-2,5-diphenyltetrazolium bromide) solution (5 mg/mL) was added to each well and reacted for 4 hours in an incubator. […] After reacting in an incubator for 30 minutes, the formation of formazan was quantified using a microplate reader at an absorbance of 540 nm. […] The human cancer cell lines used herein are MCF-7 (breast cancer), MDA-MB-231 (breast cancer), HT-29 (colon cancer), DU145 (prostate cancer), U937 (myeloid leukemia), A549 (lung cancer), PANC-1 (pancreatic cancer) and MIA PaCa-2 (pancreatic cancer).

U937 (myeloid leukemia) = assay: Cytotoxicity test by MTT assay, U937; assay type: cell-based, human; conditions: Homo sapiens, U-937; U937, 48 h
Description: as §1

[1] = Cytotoxicity test by MTT assay, HEK293 normal cell line; assay type: cell-based; conditions: human, HEK293 cells (normal cell line)
Description: (§2) A cytotoxicity test was measured by MTT assay. Each cell line was cultured in a 96-well plate at a density of 1×10^4 cells/well. After 24 hours, the culture medium containing 1% FBS (fetal bovine serum) was treated and reacted with compounds or solutions of compounds for 48 hours. MTT (3-(4,5-dimethylthiazol-2-yl)-2,5-diphenyltetrazolium bromide) solution (5 mg/mL) was added to each well and reacted for 4 hours in an incubator. […] After reacting in an incubator for 30 minutes, the formation of formazan was quantified using a microplate reader at an absorbance of 540 nm.

[2] = test system: MCF-7 (human breast cancer cell line); assay: Cytotoxicity test by MTT assay, MCF-7; assay type: cell-based; conditions: Homo sapiens, MCF7; for cytotoxicity at 30 µM: MCF-7, 30 μM, 48 h, read-out: Cell viability (% inhibition); for IC50: MCF-7, 48 h
Description: (§3) A cytotoxicity test was measured by MTT assay. Each cell line was cultured in a 96-well plate at a density of 1×10^4 cells/well. […] MTT (3-(4,5-dimethylthiazol-2-yl)-2,5-diphenyltetrazolium bromide) solution (5 mg/mL) was added to each well and reacted for 4 hours in an incubator. […] After reacting in an incubator for 30 minutes, the formation of formazan was quantified using a microplate reader at an absorbance of 540 nm. […] At this time, sunitinib was used as a control group. […] The human cancer cell lines used herein are MCF-7 (breast cancer), MDA-MB-231 (breast cancer), HT-29 (colon cancer), DU145 (prostate cancer), U937 (myeloid leukemia), A549 (lung cancer), PANC-1 (pancreatic cancer) and MIA PaCa-2 (pancreatic cancer).

[3] = Cytotoxicity test by MTT assay, CHO-K1 normal cell line; assay type: cell-based; conditions: Chinese hamster, CHO-K1 cells (normal cell line)
Description: as §2

A549 (lung cancer) = assay: Cytotoxicity test by MTT assay, A549; assay type: cell-based, human; conditions: Homo sapiens, A549, 48 h
Description: as §1

[4] = test system: PANC-1 (human pancreatic cancer cell line); assay: Cytotoxicity test by MTT assay, PANC-1; assay type: cell-based; conditions: for IC50 / cytotoxicity at 30 µM: Homo sapiens; for IC50: PANC-1, 48 h; for cytotoxicity at 30 µM: PANC-1, 30 μM, 48 h, read-out: Cell viability (% inhibition)
Description: as §3

HT-29 (colon cancer) = assay: Cytotoxicity test by MTT assay, HT-29; assay type: cell-based, human; conditions: Homo sapiens, HT-29, 48 h
Description: as §1

[5] = test system: MDA-MB-231 (breast cancer); assay: Cytotoxicity test by MTT assay, MDA-MB-231; assay type: cell-based, human; conditions: Homo sapiens, MBA-MB-231, 48 h
Description: as §1

Compound: Cc1nc2c(c(C)c1O)/C(=C/c1ccncc1)C(=O)N2 [Compound I-23, (Z)-5-Hydroxy-4,6-dimethyl-3-(pyridin-4-ylmethylene)-1H-pyrrolo[2,3-b]pyridin-2(3H)-one]
- IC50 (DU145 (prostate cancer)): 30.1 µM
- IC50 (U937 (myeloid leukemia)): 34.5 µM
- IC50 at 48 h [1]: 45.7 µM
- cytotoxicity at 30 µM [2]: 63.2%
- IC50 [2]: 19.1 µM
- IC50 at 48 h [3]: 57 µM
- IC50 (A549 (lung cancer)): 30.1 µM
- IC50 [4]: 19.1 µM
- cytotoxicity at 30 µM [4]: 65.4%
- IC50 (HT-29 (colon cancer)): 30.1 µM

Compound: Cc1nc2c(c(C)c1O)/C(=C/c1[nH]c(C)c(C(=O)N3CCCC3)c1C)C(=O)N2 [Compound I-44, (Z)-3-((3,5-Dimethyl-4-(pyrrolidine-1-carbonyl)-1H-pyrrol-2-yl)methylene)-5-hydroxy-4,6-dimethyl-1H-pyrrolo[2,3-b]pyridin-2(3H)-one]
- IC50 (U937 (myeloid leukemia)): 52.5 µM
- IC50 at 48 h [1]: > 90 µM
- cytotoxicity at 30 µM [2]: 47.7%
- IC50 [2]: 34.7 µM
- IC50 at 48 h [3]: 58.9 µM
- IC50 [5]: 43.6 µM
- IC50 (A549 (lung cancer)): 50.1 µM
- cytotoxicity at 30 µM [4]: 31.8%
- IC50 (HT-29 (colon cancer)): 43.4 µM

Compound: COc1cccc2c1C(=O)c1c(O)c3c(c(O)c1C2=O)C[C@@](O)(C(=O)CO)C[C@@H]3O[C@H]1C[C@H](N)[C@H](O)[C@H](C)O1 [Doxorubicin, reference compound]
- IC50 at 48 h [1]: 0.32 µM
- IC50 at 48 h [3]: 12.1 µM

Compound: Cc1nc2c(c(C)c1O)/C(=C/c1[nH]c(C)c(C(=O)N3CCCCC3)c1C)C(=O)N2 [Compound I-43, (Z)-3-((3,5-Dimethyl-4-(piperidine-1-carbonyl)-1H-pyrrol-2-yl)methylene)-5-hydroxy-4,6-dimethyl-1H-pyrrolo[2,3-b]pyridin-2(3H)-one]
- IC50 (U937 (myeloid leukemia)): 9.77 µM
- IC50 at 48 h [1]: > 90 µM
- cytotoxicity at 30 µM [2]: 50.5%
- IC50 [2]: 26.9 µM
- IC50 at 48 h [3]: 14.8 µM
- IC50 [5]: 14.8 µM
- IC50 (A549 (lung cancer)): 12.1 µM
- cytotoxicity at 30 µM [4]: 38.5%
- IC50 (HT-29 (colon cancer)): 16.6 µM

Compound: CCOC(=O)c1c(C)[nH]c(/C=C2\C(=O)Nc3nc(C)c(O)c(C)c32)c1C [Compound I-38, (Z)-Ethyl-5-((5-hydroxy-4,6-dimethyl-2-oxo-1H-pyrrolo[2,3-b]pyridin-3(2H)-ylidene)methyl)-2,4-dimethyl-1H-pyrrole-3-carboxylate]
- IC50 (U937 (myeloid leukemia)): 12.9 µM
- IC50 at 48 h [1]: > 90 µM
- cytotoxicity at 30 µM [2]: 41.7%
- IC50 [2]: 39.8 µM
- IC50 at 48 h [3]: 24 µM
- IC50 [5]: 24.5 µM
- IC50 (A549 (lung cancer)): 18.2 µM
- cytotoxicity at 30 µM [4]: 35.7%
- IC50 (HT-29 (colon cancer)): 22.9 µM

Compound: Cc1cc(C)c(/C=C2\C(=O)Nc3nc(C)c(O)c(C)c32)[nH]1 [Compound I-36, (Z)-3-((3,5-Dimethyl-1H-pyrrol-2-yl)methylene)-5-hydroxy-4,6-dimethyl-1H-pyrrolo[2,3-b]pyridin-2(3H)-one]
- IC50 (U937 (myeloid leukemia)): 33.9 µM
- IC50 at 48 h [1]: > 90 µM
- cytotoxicity at 30 µM [2]: 47.3%
- IC50 [2]: 31.6 µM
- IC50 at 48 h [3]: 50.1 µM
- IC50 [5]: 10.2 µM
- IC50 (A549 (lung cancer)): 13.9 µM
- cytotoxicity at 30 µM [4]: 44.7%
- IC50 (HT-29 (colon cancer)): 16.6 µM

Compound: Cc1nc2c(c(C)c1O)/C(=C/c1[nH]c(C)c(C(=O)N3CCOCC3)c1C)C(=O)N2 [Compound I-46, (Z)-3-((3,5-Dimethyl-4-(morpholine-4-carbonyl)-1H-pyrrol-2-yl)methylene)-5-hydroxy-4,6-dimethyl-1H-pyrrolo[2,3-b]pyridin-2(3H)-one]
- IC50 (DU145 (prostate cancer)): 22.9 µM
- IC50 at 48 h [1]: > 90 µM
- cytotoxicity at 30 µM [2]: 71.2%
- IC50 [2]: 12.6 µM
- IC50 at 48 h [3]: > 90 µM
- IC50 [5]: 14.5 µM
- IC50 (A549 (lung cancer)): 30.1 µM
- IC50 [4]: 11.5 µM
- cytotoxicity at 30 µM [4]: 71.1%
- cytotoxicity compared with the reference drug sunitinib ([4]; PANC-1): greater than or equal to that of the reference drug sunitinib
- IC50 (HT-29 (colon cancer)): 57.5 µM
